In patent US7973012B2, “C-phenyl glycitol compound” (Taisho Pharmaceutical Co., Ltd, priority 2006, dated 2011):

Key:
human SGLT1 = target: T1, human SGLT1 (Homo sapiens, UniProt P13866); experiment: Inhibition test of sodium-dependent sugar uptake in CHO-k1 cells stably expressing human SGLT1; assay type: cell-based; conditions: for SGLT1 % inhibition at 100 nM: sugar uptake inhibition rate at 100 nM test compound vs control group; for IC50: CHO-k1 cells expressing human SGLT1, [14C]methyl α-D-glucopyranoside uptake, 37° C., 30 minutes
T1 construct: expressed in transfected cells; host or cells: CHO-k1
T1 sequence (P13866 1-664): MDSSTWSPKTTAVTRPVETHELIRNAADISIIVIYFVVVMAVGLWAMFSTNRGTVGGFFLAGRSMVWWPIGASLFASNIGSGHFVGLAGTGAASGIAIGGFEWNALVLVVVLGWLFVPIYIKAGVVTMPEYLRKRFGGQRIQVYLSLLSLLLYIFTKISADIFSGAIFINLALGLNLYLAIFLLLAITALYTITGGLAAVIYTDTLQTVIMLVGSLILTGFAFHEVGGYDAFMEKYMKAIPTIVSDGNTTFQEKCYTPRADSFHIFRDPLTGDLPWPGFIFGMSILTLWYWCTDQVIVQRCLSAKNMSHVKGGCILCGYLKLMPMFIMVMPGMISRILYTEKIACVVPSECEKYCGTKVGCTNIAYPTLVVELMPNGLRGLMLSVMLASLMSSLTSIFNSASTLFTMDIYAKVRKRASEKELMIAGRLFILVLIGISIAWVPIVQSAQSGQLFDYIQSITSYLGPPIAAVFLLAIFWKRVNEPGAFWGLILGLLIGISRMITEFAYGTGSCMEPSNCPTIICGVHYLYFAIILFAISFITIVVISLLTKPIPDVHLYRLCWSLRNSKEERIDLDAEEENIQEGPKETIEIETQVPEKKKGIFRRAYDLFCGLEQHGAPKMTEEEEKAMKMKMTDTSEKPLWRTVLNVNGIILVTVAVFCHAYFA
Description: (§1) An SGLT1 sequence (NM_000343) was reverse-transcripted from human small intestinal mRNA, then amplified, and then introduced into pCMV-tag5A from Stratagene Corporation. An SGLT2 sequence (NM_003041) was prepared from human nephric mRNA as with the above method, and then introduced into pcDNA3.1+hygro from Invitrogen Corporation. Each cloned sequence was confirmed to be identical with the reported sequence.
(§2) The human SGLT1 and human SGLT2 expression vectors were transfected into CHO-k1 cells by using Lipofectamine 2000 from Invitrogen Corporation. The SGLT expression cells were incubated in the presence of Geneticin (SGLT1) or Hygromycin B (SGLT2) at a 500 μg/mL concentration to select resistant strains, and specific activity of sugar uptake was obtained as an indicator by the following system.
(§3) Cells stably expressing human SGLT1 and human SGLT2 were used for the inhibition test of sodium-dependent glucose uptake.
(§4) The cells were incubated in a pretreatment buffer A (200 μL for SGLT1, and 2 mL for SGLT2) for 20 minutes. The pretreatment buffer was removed and an uptake buffer B (75 μL for SGLT1, and 200 μL for SGLT2) containing a test compound was added to conduct an uptake reaction at 37° C. for 30 minutes (SGLT1) or an hour (SGLT2). After the reaction, the cells were washed with a washing buffer C twice (200 μL for SGLT1, and 2 mL for SGLT2), and then dissolved in a 0.2 M solution of NaOH (75 μL for SGLT1, and 400 μL for SGLT2). After a liquid scintilater was added thereto and mixed sufficiently, radioactivity was measured with microBETA (SGLT1) or a liquid scintillation counter from Beckman Coulter, Inc (SGLT2). As a control group, an uptake buffer containing no test compound was prepared. In addition, as the basic uptake buffer, an uptake buffer B containing choline chloride instead of NaCl was prepared. • A pretreatment buffer A: 140 mM choline chloride, 2 mM KCl, 1 mM CaCl2, 1 mM MgCl2, 10 mM HEPES/5 mM Tris, pH 7.4. • An uptake buffer B: 1 mM of methyl α-D-glucopyranoside containing [^14C]methyl α-D-glucopyranoside, 140 mM NaCl, 2 mM KCl, 1 mM CaCl2, 1 mM MgCl2, 10 mM HEPES/5 mM Tris, pH 7.4. • A washing buffer C: 10 mM methyl α-D-glucopyranoside, 140 mM choline chloride, 2 mM KCl, 1 mM CaCl2, 1 mM MgCl2, 10 mM HEPES/5 mM Tris, pH 7.4.
(§5) In order to obtain IC50 values, test compounds having adequate 6 concentrations were used and the test compound concentrations (IC50 values) at which sugar uptake is inhibited by 50% in comparison with the amount of sugar uptake (100%) of the control group were calculated.
(§6) In addition, the sugar uptake inhibition rates at 100 nM concentration of the test compound in comparison with the control group are shown in Table 7.

human SGLT2 = target: T2, human SGLT2 (Homo sapiens, UniProt P31639); experiment: Inhibition test of sodium-dependent sugar uptake in CHO-k1 cells stably expressing human SGLT2; assay type: cell-based; conditions: for SGLT2 % inhibition at 100 nM: sugar uptake inhibition rate at 100 nM test compound vs control group; for IC50: CHO-k1 cells expressing human SGLT2, [14C]methyl α-D-glucopyranoside uptake, 37° C., an hour
T2 construct: expressed in transfected cells; host or cells: CHO-k1
T2 sequence (P31639 1-672): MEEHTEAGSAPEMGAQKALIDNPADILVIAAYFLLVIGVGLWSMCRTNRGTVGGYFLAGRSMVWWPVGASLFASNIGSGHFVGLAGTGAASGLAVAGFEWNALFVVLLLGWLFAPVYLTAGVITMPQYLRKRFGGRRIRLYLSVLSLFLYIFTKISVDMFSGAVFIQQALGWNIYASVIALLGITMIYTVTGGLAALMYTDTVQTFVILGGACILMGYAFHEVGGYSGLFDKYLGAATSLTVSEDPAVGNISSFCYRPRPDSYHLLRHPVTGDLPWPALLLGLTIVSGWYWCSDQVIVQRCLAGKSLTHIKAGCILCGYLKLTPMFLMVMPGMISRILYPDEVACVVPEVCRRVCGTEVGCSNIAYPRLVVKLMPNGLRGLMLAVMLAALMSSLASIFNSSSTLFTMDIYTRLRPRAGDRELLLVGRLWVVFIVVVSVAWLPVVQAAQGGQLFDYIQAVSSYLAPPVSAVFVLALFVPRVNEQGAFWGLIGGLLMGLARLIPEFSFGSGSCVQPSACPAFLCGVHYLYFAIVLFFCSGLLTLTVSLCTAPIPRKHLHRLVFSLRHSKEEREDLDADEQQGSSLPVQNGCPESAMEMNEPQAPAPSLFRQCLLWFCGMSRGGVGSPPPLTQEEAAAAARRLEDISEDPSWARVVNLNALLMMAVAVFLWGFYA
Description: as §1, §2, §3, §4, §5, §6

SMILES: Cc1cc(O)c(C2OC(CO)C(O)C(O)C2O)cc1Cc1ccc(CCNC(=O)NC2CC3CCC2C3)cc1 (mixture of isomers) [Compound 124]
- SGLT1 % inhibition at 100 nM (human SGLT1): 71%
- SGLT2 % inhibition at 100 nM (human SGLT2): 79%

SMILES: Cc1cc(O)c(C2OC(CO)C(O)C(O)C2O)cc1Cc1ccc(CCNC(=O)NC2CCN(Cc3ccccc3)C2)cc1 (mixture of isomers) [Compound 132]
- SGLT1 % inhibition at 100 nM (human SGLT1): 90%
- SGLT2 % inhibition at 100 nM (human SGLT2): 90%

SMILES: Cc1cc(O)c(C2OC(CO)C(O)C(O)C2O)cc1Cc1ccc(CCNC(=O)Nc2ccccc2C(O)c2ccccc2)cc1 (mixture of isomers) [Compound 137]
- SGLT1 % inhibition at 100 nM (human SGLT1): 71%
- SGLT2 % inhibition at 100 nM (human SGLT2): 79%

SMILES: Cc1cc(O)c(C2OC(CO)C(O)C(O)C2O)cc1Cc1ccc(CCNC(=O)N2CCC3CCCCC3C2)cc1 (mixture of isomers) [Compound 143]
- SGLT1 % inhibition at 100 nM (human SGLT1): 66%
- SGLT2 % inhibition at 100 nM (human SGLT2): 80%

SMILES: O=C(NCCc1ccc(Cc2cc([C@@H]3O[C@H](CO)[C@@H](O)[C@H](O)[C@H]3O)c(O)cc2Cl)cc1)NC(CO)(CO)CO [Compound 14, (1S)-1,5-anhydro-1-[4-chloro-5-[4-[2-[[[2-hydroxy-1,1-bis(hydroxymethyl)ethyl]aminocarbonyl]amino]ethyl]benzyl]-2-hydroxyphenyl]-D-glucitol]
- IC50 (human SGLT1): 49 nM
- IC50 (human SGLT2): 21 nM

SMILES: O=C(NCCc1ccc(Cc2cc([C@@H]3O[C@H](CO)[C@@H](O)[C@H](O)[C@H]3O)ccc2Cl)cc1)NC(CO)(CO)CO [Compound 17, (1S)-1,5-anhydro-1-[4-chloro-3-[4-[2-[[[2-hydroxy-1,1-bis(hydroxymethyl)ethyl]aminocarbonyl]amino]ethyl]benzyl]phenyl]-D-glucitol]
- IC50 (human SGLT1): 79 nM
- IC50 (human SGLT2): 25 nM

SMILES: Cc1cc(O)c([C@@H]2O[C@H](CO)[C@@H](O)[C@H](O)[C@H]2O)cc1Cc1ccc(OCCNC(=O)NC(CO)(CO)CO)cc1 [Compound 19]
- IC50 (human SGLT1): 302 nM
- IC50 (human SGLT2): 101 nM

SMILES: COC(=O)CNC(=O)NCCc1ccc(Cc2cc([C@@H]3O[C@H](CO)[C@@H](O)[C@H](O)[C@H]3O)c(O)cc2C)cc1 [Compound 21]
- IC50 (human SGLT1): 75 nM
- IC50 (human SGLT2): 34 nM

SMILES: COC(=O)[C@H](Cc1ccccc1)NC(=O)NCCc1ccc(Cc2cc([C@@H]3O[C@H](CO)[C@@H](O)[C@H](O)[C@H]3O)c(O)cc2C)cc1 [Compound 22]
- IC50 (human SGLT1): 37 nM
- IC50 (human SGLT2): 12 nM

SMILES: Cc1cc(O)c([C@@H]2O[C@H](CO)[C@@H](O)[C@H](O)[C@H]2O)cc1Cc1ccc(CCNC(=O)NC2(CO)CCCC2)cc1 [Compound 23]
- IC50 (human SGLT1): 19 nM
- IC50 (human SGLT2): 19 nM

SMILES: Cc1cc(O)c([C@@H]2O[C@H](CO)[C@@H](O)[C@H](O)[C@H]2O)cc1Cc1ccc(CCNC(=O)N[C@@H](CC(C)C)C(N)=O)cc1 [Compound 24]
- IC50 (human SGLT1): 37 nM
- IC50 (human SGLT2): 25 nM

SMILES: CCCN(CC1CC1)C(=O)NCCc1ccc(Cc2cc([C@@H]3O[C@H](CO)[C@@H](O)[C@H](O)[C@H]3O)c(O)cc2C)cc1 [Compound 25]
- IC50 (human SGLT1): 64 nM
- IC50 (human SGLT2): 20 nM

SMILES: Cc1cc(O)c([C@@H]2O[C@H](CO)[C@@H](O)[C@H](O)[C@H]2O)cc1Cc1ccc(CCNC(=O)NCc2cccs2)cc1 [Compound 26]
- IC50 (human SGLT1): 52 nM
- IC50 (human SGLT2): 15 nM

SMILES: Cc1cc(O)c([C@@H]2O[C@H](CO)[C@@H](O)[C@H](O)[C@H]2O)cc1Cc1ccc(CCNC(=O)NCc2cc(Cl)cc(Cl)c2)cc1 [Compound 27]
- IC50 (human SGLT1): 54 nM
- IC50 (human SGLT2): 15 nM

SMILES: Cc1cc(O)c([C@@H]2O[C@H](CO)[C@@H](O)[C@H](O)[C@H]2O)cc1Cc1ccc(CCNC(=O)NCC2CCCCC2)cc1 [Compound 28]
- IC50 (human SGLT1): 64 nM
- IC50 (human SGLT2): 18 nM

SMILES: CSCCNC(=O)NCCc1ccc(Cc2cc([C@@H]3O[C@H](CO)[C@@H](O)[C@H](O)[C@H]3O)c(O)cc2C)cc1 [Compound 29]
- IC50 (human SGLT1): 75 nM
- IC50 (human SGLT2): 17 nM

SMILES: Cc1cc(O)c([C@@H]2O[C@H](CO)[C@@H](O)[C@H](O)[C@H]2O)cc1Cc1ccc(CCNC(=O)NCCN2CCCC2)cc1 [Compound 30]
- IC50 (human SGLT1): 111 nM
- IC50 (human SGLT2): 13 nM

SMILES: COCCNC(=O)NCCc1ccc(Cc2cc([C@@H]3O[C@H](CO)[C@@H](O)[C@H](O)[C@H]3O)c(O)cc2C)cc1 [Compound 31]
- IC50 (human SGLT1): 148 nM
- IC50 (human SGLT2): 39 nM

SMILES: COC(=O)CCNC(=O)NCCc1ccc(Cc2cc([C@@H]3O[C@H](CO)[C@@H](O)[C@H](O)[C@H]3O)c(O)cc2C)cc1 [Compound 32]
- IC50 (human SGLT1): 245 nM
- IC50 (human SGLT2): 44 nM

SMILES: Cc1cc(O)c([C@@H]2O[C@H](CO)[C@@H](O)[C@H](O)[C@H]2O)cc1Cc1ccc(CCNC(=O)NC2CCN(Cc3ccccc3)CC2)cc1 [Compound 33]
- IC50 (human SGLT1): 12 nM
- IC50 (human SGLT2): 11 nM

SMILES: Cc1cc(O)c([C@@H]2O[C@H](CO)[C@@H](O)[C@H](O)[C@H]2O)cc1Cc1ccc(CCNC(=O)NC2CN3CCC2CC3)cc1 (stereo partly shown) [Compound 34]
- IC50 (human SGLT1): 49 nM
- IC50 (human SGLT2): 10 nM

SMILES: Cc1cc(O)c([C@@H]2O[C@H](CO)[C@@H](O)[C@H](O)[C@H]2O)cc1Cc1ccc(CCNC(=O)NC2CCCc3ccccc32)cc1 (stereo partly shown) [Compound 35]
- IC50 (human SGLT1): 83 nM
- IC50 (human SGLT2): 34 nM

SMILES: Cc1cc(O)c([C@@H]2O[C@H](CO)[C@@H](O)[C@H](O)[C@H]2O)cc1Cc1ccc(CCNC(=O)N2CCC(C)CC2)cc1 [Compound 36]
- IC50 (human SGLT1): 94 nM
- IC50 (human SGLT2): 34 nM

SMILES: CCC(CO)(CO)NC(=O)NCCc1ccc(Cc2cc([C@@H]3O[C@H](CO)[C@@H](O)[C@H](O)[C@H]3O)c(O)cc2C)cc1 [Compound 38]
- SGLT1 % inhibition at 100 nM (human SGLT1): 89%
- SGLT2 % inhibition at 100 nM (human SGLT2): 83%

SMILES: Cc1cc(O)c([C@@H]2O[C@H](CO)[C@@H](O)[C@H](O)[C@H]2O)cc1Cc1ccc(CCNC(=O)NC(C)(C)C)cc1 [Compound 39]
- SGLT1 % inhibition at 100 nM (human SGLT1): 80%
- SGLT2 % inhibition at 100 nM (human SGLT2): 83%

SMILES: Cc1cc(O)c([C@@H]2O[C@H](CO)[C@@H](O)[C@H](O)[C@H]2O)cc1Cc1ccc(CCNC(=O)N[C@@H](Cc2ccccc2)C(N)=O)cc1 [Compound 40]
- SGLT1 % inhibition at 100 nM (human SGLT1): 79%
- SGLT2 % inhibition at 100 nM (human SGLT2): 89%
